According to US20150157023A1, “S[…] CONTROL FROM COMBINATIONS OF 2,4-D-CHOLINE AND GLUFOSINATE” (Dow AgroSciences LLC, priority 2013, published 2015):
Where a name gives a salt, the structure may show the parent alone.

Test system: AAD12 Soybean (GLXMA)
Experiment: Field crop tolerance trials (% visual injury, chlorosis, growth inhibition)
Procedure: These trials were conducted under field conditions in multiple states in the United States, including but not limited to Arkansas, Illinois, Indiana, Minnesota, Mississippi, Nebraska, Ohio, Oklahoma, Texas, South Carolina and South Dakota. […] Treatments were applied with small plot backpack sprayers, using pressurized air or carbon dioxide (CO2) as propellant. Pressure varied from 22-50 pounds per square inch (psi), with spray tips typically of a Flat Fan type applying water diluent at 15 gallons per acre (GPA). Boom sizes varied from 6.3-10 ft in width. Treatments were applied to soybean, cotton, corn or fallow crop land. Weed sizes varied, but all treatments were applied as post-emergence treatments to weeds from 2 leaf to 2 tiller growth stages varying from 2 to 15 inches in height. The weed spectrum included, but was not limited to, Amaranthus palmeri S. Wats. (Palmer amaranth, AMAPA), Conyza canadensis (L.) Cronq. (horseweed, ERICA), Salsola tragus L. (Russian thistle, SASKR) and Sesbania exaltata (hemp sesbania, SEBEX).
2,4-D- and glufosinate-tolerant soybeans, corn and cotton and optionally a glyphosate trait in a breeding (CP4 EPSPS) or a molecular stack (2mEPSPS) were used in all tolerance trials.
The 2,4-D-choline salt formulation was a 456 g ae/L SL. […] All treatments were mixed in water at appropriate formulated product rates to achieve the desired rates as shown based on a unit area of application (hectare). Treatments were rated at 2 to 28 days after application (DAA) as compared to the untreated control plants. The trial sites had naturally occurring populations of weeds. The treated plots and control plots were rated blind at various intervals after application. […]

## O=C(O)COc1ccc(Cl)cc1Cl [2,4-D-Choline salt, 2-hydroxy-N,N,N-trimethylethanaminium 2-(2,4-dichlorophenoxy)acetate]
7DAA, 2130 g ae/ha
  Mean % crop growth inhibition: 1%
14DAA, 2130 g ae/ha
  Mean % crop growth inhibition: 0%
15DAA, 2130 g ae/ha
  Mean % crop growth inhibition: 0%

## CP(=O)(O)CCC(N)C(=O)O (centres unmarked) [Glufosinate-ammonium, ammonium (3-amino-3-carboxypropyl)(methyl)phosphinate]
7DAA, 1084 g ae/ha
  Mean % crop growth inhibition: 14.0%
15DAA, 1084 g ae/ha
  Mean % crop growth inhibition: 9.8%
